Results reported in PubChem BioAssay AID2060902 (Molecular Pharmacology Branch, DTP, NCI, 2025).

Tested on: 485368-065-R3-J5-PDC spheroids with HUVEC/MSC, viability
Experiment: Anticancer human tumor 485368-065-R3-J5-PDC patient-derived pancreatic carcinoma cell line growth inhibition [RAS]
Conditions: for IC50: curve of first compound; for viability, T/C: stronger effect = lower value; active = viability on the fitted dose curve at most 10% of control; inactive = the rest
Procedure, shortened: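 Multi-cell-type spheroids: tumor cells plus HUVEC endothelial cells and mesenchymal stem cells. RAS-pathway inhibitors were combined with targeted agents, each dosed in half-log steps down from clinical Cmax, or from 10 microM when Cmax was unknown.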
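Note: spheroids exposed to agents for seven days before readout.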

Cc1nc(N2CCC3(CC2)COC(C)C3N)c(CO)nc1Sc1ccnc(N)c1Cl (configuration not stated) + C#Cc1c(F)ccc2cc(O)cc(-c3ncc4c(N5CC6CCC(C5)N6)nc(OCC56CCCN5CC(F)C6)nc4c3F)c12
< 31.6 nM: IC50 (second compound 10 µM)
106 nM: IC50 (second compound 3.16 µM)
> 10000 nM: IC50 (second compound 0.0316 µM) | IC50 (second compound 0.1 µM)
821 nM: IC50 (second compound 1 µM)
1910 nM: IC50 (second compound 0.316 µM)
inactive: viability, T/C (second compound 0.0316 µM, first compound 0.0316 µM) 98.3% | viability, T/C (second compound 0.0316 µM, first compound 0.1 µM) 88.5% | viability, T/C (second compound 0.0316 µM, first compound 0.316 µM) 87.3% | viability, T/C (second compound 0.0316 µM, first compound 1 µM) 75.1% | viability, T/C (second compound 0.0316 µM, first compound 3.16 µM) 60% | viability, T/C (second compound 0.0316 µM, first compound 10 µM) 58.8% | viability, T/C (second compound 0.1 µM, first compound 0.0316 µM) 110% | viability, T/C (second compound 0.1 µM, first compound 0.1 µM) 92.3% | viability, T/C (second compound 0.1 µM, first compound 0.316 µM) 74% | viability, T/C (second compound 0.1 µM, first compound 1 µM) 62.7% | viability, T/C (second compound 0.1 µM, first compound 3.16 µM) 63.6% | viability, T/C (second compound 0.1 µM, first compound 10 µM) 51.8% | viability, T/C (second compound 0.316 µM, first compound 0.0316 µM) 101% | viability, T/C (second compound 0.316 µM, first compound 0.1 µM) 89.6% | viability, T/C (second compound 0.316 µM, first compound 0.316 µM) 78.5% | viability, T/C (second compound 0.316 µM, first compound 1 µM) 52.4% | viability, T/C (second compound 0.316 µM, first compound 3.16 µM) 47.5% | viability, T/C (second compound 0.316 µM, first compound 10 µM) 44% | viability, T/C (second compound 1 µM, first compound 0.0316 µM) 91.5% | viability, T/C (second compound 1 µM, first compound 0.1 µM) 77.2% | viability, T/C (second compound 1 µM, first compound 0.316 µM) 56.7% | viability, T/C (second compound 1 µM, first compound 1 µM) 47.6% | viability, T/C (second compound 1 µM, first compound 3.16 µM) 42.2% | viability, T/C (second compound 1 µM, first compound 10 µM) 30% | viability, T/C (second compound 3.16 µM, first compound 0.0316 µM) 65.9% | viability, T/C (second compound 3.16 µM, first compound 0.1 µM) 49.7% | viability, T/C (second compound 3.16 µM, first compound 0.316 µM) 39.1% | viability, T/C (second compound 3.16 µM, first compound 1 µM) 31.9% | viability, T/C (second compound 3.16 µM, first compound 3.16 µM) 24.7% | viability, T/C (second compound 3.16 µM, first compound 10 µM) 21.6% | viability, T/C (second compound 10 µM, first compound 0.0316 µM) 36.3% | viability, T/C (second compound 10 µM, first compound 0.1 µM) 29.7% | viability, T/C (second compound 10 µM, first compound 0.316 µM) 24.3% | viability, T/C (second compound 10 µM, first compound 1 µM) 19.9% | viability, T/C (second compound 10 µM, first compound 3.16 µM) 19.7% | viability, T/C (second compound 10 µM, first compound 10 µM) 12.8%
